Source: ChEMBL document CHEMBL1145498, “A systematic interaction map of validated kinase inhibitors with Ser/Thr kinases” (Proc Natl Acad Sci U S A, 2007)

Experiments:
[1] = biological target: Death-associated protein kinase 3 (Homo sapiens) (UniProt O43293)
[2] = biological target: Tyrosine-protein kinase JAK1 (Homo sapiens) (UniProt P23458)
[3] = biological target: Serine/threonine-protein kinase PLK1 (Homo sapiens) (UniProt P53350)
[4] = biological target: Serine/threonine-protein kinase OSR1 (Homo sapiens) (UniProt O95747)
[5] = biological target: Dual specificity mitogen-activated protein kinase kinase 2 (Homo sapiens, UniProt P36507)
[6] = biological target: Cyclin-dependent kinase 2 (Homo sapiens, UniProt P24941)
[7] = biological target: Serine/threonine-protein kinase pim-3 (Homo sapiens) (UniProt Q86V86)
[8] = biological target: Serine/threonine-protein kinase Nek6 (Homo sapiens) (UniProt Q9HC98)
[9] = biological target: Calcium/calmodulin-dependent protein kinase type II subunit delta (Homo sapiens) (UniProt Q13557)
[10] = biological target: Calcium/calmodulin-dependent protein kinase type 1G (Homo sapiens) (UniProt Q96NX5)
[11] = biological target: Dual specificity protein kinase CLK2 (Homo sapiens) (UniProt P49760)
[12] = biological target: Calcium/calmodulin-dependent protein kinase type 1D (Homo sapiens) (UniProt Q8IU85)
[13] = biological target: cAMP-dependent protein kinase catalytic subunit alpha (Homo sapiens) (UniProt P17612)
[14] = biological target: Casein kinase I isoform gamma-2 (Homo sapiens) (UniProt P78368)
[15] = biological target: T1, Dual specificity mitogen-activated protein kinase kinase 6 (Homo sapiens) (UniProt P52564)
T1 sequence (whole entry): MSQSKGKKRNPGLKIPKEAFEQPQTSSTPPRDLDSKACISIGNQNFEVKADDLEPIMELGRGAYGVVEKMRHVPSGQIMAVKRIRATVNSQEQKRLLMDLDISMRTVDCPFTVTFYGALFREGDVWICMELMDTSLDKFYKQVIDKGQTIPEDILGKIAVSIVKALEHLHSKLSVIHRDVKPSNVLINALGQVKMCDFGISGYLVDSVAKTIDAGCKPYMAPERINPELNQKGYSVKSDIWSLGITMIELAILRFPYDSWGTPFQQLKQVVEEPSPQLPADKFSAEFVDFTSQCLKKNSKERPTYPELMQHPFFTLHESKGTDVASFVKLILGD

[16] = biological target: Serine/threonine-protein kinase PAK 5 (Homo sapiens) (UniProt Q9P286)
[17] = biological target: Serine/threonine-protein kinase RIO2 (Homo sapiens) (UniProt Q9BVS4)
[18] = biological target: Casein kinase I isoform gamma-1 (Homo sapiens) (UniProt Q9HCP0)
[19] = biological target: 5'-AMP-activated protein kinase catalytic subunit alpha-2 (Homo sapiens) (UniProt P54646)
[20] = biological target: Mitogen-activated protein kinase 3 (Homo sapiens, UniProt P27361)
[21] = biological target: Glycogen synthase kinase-3 beta (Homo sapiens, UniProt P49841)
[22] = biological target: Cyclin-dependent kinase 16 (Homo sapiens) (UniProt Q00536)
[23] = biological target: Calcium/calmodulin-dependent protein kinase kinase 2 (Homo sapiens, UniProt Q96RR4)
[24] = biological target: T2, Lymphokine-activated killer T-cell-originated protein kinase (Homo sapiens) (UniProt Q96KB5)
T2 sequence (whole entry): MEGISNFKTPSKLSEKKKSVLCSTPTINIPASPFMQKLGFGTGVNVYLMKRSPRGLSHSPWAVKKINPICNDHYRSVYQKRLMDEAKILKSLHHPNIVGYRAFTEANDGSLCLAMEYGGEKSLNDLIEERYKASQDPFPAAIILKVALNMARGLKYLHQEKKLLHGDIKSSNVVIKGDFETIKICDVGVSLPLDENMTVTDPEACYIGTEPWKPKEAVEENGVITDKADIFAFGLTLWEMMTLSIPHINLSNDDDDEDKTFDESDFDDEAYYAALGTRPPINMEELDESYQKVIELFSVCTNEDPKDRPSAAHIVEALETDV

[25] = biological target: Serine/threonine-protein kinase 26 (Homo sapiens) (UniProt Q9P289)
[26] = biological target: TRAF2 and NCK-interacting protein kinase (Homo sapiens) (UniProt Q9UKE5)
[27] = biological target: Ribosomal protein S6 kinase alpha-3 (Homo sapiens) (UniProt P51812)
[28] = biological target: Serine/threonine-protein kinase 10 (Homo sapiens) (UniProt O94804)
[29] = biological target: STE20-like serine/threonine-protein kinase (Homo sapiens) (UniProt Q9H2G2)

Chain of Mitogen-activated protein kinase 3 (P27361 whole entry): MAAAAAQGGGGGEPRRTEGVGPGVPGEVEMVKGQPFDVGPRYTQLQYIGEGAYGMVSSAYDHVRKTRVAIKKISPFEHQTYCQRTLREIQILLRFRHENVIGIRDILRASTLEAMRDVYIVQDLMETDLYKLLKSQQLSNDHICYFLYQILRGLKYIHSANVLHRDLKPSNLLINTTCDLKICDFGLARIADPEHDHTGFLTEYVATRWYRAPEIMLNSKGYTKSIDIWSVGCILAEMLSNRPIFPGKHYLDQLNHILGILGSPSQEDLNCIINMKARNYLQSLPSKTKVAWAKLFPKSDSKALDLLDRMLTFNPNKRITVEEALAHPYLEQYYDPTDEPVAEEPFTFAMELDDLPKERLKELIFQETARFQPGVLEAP
Chain of Tyrosine-protein kinase JAK1 (Homo sapiens) (P23458 whole entry): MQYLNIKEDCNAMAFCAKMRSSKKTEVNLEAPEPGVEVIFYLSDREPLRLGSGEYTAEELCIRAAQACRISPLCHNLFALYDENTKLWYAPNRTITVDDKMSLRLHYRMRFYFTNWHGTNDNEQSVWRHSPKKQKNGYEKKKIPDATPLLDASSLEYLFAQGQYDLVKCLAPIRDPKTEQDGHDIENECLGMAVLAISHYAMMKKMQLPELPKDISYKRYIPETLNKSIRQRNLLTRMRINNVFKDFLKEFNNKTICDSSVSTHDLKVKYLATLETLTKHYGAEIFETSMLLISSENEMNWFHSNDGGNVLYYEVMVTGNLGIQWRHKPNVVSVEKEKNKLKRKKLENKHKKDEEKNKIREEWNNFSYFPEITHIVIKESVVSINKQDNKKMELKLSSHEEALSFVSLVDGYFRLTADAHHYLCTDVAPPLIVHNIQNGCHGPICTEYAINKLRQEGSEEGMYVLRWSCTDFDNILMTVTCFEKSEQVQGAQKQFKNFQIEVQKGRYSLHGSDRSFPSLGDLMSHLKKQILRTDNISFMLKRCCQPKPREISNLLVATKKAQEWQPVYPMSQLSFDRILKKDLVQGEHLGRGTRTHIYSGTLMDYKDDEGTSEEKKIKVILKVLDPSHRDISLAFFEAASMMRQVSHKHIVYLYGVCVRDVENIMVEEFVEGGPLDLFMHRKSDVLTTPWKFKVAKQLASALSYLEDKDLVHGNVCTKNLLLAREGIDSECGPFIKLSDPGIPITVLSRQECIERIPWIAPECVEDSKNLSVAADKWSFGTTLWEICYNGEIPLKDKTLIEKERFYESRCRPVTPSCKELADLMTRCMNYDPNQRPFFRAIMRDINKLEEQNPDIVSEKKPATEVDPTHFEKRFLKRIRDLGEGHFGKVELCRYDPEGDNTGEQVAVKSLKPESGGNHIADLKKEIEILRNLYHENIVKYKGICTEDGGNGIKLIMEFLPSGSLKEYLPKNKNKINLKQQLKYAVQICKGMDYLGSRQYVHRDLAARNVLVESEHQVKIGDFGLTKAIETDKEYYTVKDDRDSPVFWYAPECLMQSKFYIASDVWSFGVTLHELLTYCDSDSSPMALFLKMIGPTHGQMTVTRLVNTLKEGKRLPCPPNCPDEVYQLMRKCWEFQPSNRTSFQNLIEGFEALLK
Chain of Dual specificity protein kinase CLK2 (Homo sapiens) (P49760 whole entry, looked up): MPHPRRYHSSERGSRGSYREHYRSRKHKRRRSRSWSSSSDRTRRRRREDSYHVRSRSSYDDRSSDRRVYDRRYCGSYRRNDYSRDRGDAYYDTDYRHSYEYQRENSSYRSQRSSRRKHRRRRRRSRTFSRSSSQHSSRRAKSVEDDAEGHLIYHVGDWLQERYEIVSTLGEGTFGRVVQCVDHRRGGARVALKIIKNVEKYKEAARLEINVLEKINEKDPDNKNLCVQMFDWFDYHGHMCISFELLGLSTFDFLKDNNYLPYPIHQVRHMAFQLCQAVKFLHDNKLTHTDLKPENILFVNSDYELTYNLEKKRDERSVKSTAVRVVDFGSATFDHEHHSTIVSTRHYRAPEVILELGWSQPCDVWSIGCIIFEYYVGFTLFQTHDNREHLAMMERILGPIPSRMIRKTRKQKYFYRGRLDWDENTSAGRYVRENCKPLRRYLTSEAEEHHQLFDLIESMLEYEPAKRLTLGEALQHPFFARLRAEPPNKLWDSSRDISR
Chain of Calcium/calmodulin-dependent protein kinase type II subunit delta (Homo sapiens) (Q13557 whole entry): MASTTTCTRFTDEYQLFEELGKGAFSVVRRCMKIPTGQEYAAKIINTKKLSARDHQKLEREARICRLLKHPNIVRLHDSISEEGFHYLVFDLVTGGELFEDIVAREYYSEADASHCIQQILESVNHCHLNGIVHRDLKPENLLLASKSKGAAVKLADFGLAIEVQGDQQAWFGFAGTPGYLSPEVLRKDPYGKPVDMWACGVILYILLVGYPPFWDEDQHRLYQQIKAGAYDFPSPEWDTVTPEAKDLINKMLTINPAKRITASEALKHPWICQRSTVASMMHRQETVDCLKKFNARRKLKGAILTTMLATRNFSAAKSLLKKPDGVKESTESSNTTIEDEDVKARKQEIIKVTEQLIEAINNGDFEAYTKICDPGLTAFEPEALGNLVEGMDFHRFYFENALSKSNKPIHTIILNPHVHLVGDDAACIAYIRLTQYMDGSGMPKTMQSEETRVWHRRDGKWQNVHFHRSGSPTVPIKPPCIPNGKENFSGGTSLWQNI
Chain of Death-associated protein kinase 3 (Homo sapiens) (O43293 whole entry, looked up): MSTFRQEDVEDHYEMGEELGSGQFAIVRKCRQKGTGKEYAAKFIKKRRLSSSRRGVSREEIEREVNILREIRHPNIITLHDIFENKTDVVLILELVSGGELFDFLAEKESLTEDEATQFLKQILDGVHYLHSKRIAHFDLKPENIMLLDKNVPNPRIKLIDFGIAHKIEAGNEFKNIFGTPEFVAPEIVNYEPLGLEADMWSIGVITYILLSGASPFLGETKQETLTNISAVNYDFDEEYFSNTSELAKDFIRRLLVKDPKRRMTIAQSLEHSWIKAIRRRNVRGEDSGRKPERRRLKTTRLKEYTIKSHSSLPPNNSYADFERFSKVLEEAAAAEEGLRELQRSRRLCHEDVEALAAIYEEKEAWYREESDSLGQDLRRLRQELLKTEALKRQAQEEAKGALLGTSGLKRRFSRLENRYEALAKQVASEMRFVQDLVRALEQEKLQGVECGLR
Chain of Casein kinase I isoform gamma-1 (Homo sapiens) (Q9HCP0 whole entry, looked up, canonical isoform): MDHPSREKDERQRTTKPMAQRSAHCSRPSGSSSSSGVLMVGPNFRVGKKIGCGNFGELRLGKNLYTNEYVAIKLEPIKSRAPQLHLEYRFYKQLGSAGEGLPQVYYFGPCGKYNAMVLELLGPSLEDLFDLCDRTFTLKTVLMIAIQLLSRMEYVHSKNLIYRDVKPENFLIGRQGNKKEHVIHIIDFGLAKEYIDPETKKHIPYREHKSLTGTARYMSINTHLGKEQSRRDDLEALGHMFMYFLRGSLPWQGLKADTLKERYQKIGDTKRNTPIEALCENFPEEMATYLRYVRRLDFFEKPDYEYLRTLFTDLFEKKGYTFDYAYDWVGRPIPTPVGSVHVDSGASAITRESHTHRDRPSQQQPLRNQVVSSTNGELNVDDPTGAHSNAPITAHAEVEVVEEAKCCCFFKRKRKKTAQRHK
Chain of Cyclin-dependent kinase 16 (Homo sapiens) (Q00536 whole entry): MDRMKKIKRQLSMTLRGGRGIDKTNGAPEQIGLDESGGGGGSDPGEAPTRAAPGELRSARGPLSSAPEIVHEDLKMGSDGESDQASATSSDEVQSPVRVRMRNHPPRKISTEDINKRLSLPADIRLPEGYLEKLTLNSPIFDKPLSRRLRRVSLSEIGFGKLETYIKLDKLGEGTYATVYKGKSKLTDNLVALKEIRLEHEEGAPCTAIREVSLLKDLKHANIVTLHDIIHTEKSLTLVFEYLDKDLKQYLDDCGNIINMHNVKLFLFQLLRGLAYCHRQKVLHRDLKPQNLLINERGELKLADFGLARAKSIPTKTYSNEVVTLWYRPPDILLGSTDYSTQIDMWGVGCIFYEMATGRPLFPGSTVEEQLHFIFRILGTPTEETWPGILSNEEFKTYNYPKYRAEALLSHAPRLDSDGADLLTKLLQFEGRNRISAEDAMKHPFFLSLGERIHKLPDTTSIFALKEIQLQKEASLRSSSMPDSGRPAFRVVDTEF
Chain of Casein kinase I isoform gamma-2 (Homo sapiens) (P78368 whole entry, looked up, canonical isoform): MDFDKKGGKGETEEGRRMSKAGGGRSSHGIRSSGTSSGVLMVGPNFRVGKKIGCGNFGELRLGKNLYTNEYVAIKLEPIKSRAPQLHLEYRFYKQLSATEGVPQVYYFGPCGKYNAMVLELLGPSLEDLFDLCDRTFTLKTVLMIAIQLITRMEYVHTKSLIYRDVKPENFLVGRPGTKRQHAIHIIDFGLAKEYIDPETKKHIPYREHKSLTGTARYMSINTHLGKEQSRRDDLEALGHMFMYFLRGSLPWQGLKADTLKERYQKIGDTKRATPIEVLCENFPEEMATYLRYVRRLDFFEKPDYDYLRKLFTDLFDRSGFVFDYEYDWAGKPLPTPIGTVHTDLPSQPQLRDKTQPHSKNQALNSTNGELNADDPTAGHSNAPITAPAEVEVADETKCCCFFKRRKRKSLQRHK
Chain of Calcium/calmodulin-dependent protein kinase kinase 2 (Q96RR4 2-588 limits assumed): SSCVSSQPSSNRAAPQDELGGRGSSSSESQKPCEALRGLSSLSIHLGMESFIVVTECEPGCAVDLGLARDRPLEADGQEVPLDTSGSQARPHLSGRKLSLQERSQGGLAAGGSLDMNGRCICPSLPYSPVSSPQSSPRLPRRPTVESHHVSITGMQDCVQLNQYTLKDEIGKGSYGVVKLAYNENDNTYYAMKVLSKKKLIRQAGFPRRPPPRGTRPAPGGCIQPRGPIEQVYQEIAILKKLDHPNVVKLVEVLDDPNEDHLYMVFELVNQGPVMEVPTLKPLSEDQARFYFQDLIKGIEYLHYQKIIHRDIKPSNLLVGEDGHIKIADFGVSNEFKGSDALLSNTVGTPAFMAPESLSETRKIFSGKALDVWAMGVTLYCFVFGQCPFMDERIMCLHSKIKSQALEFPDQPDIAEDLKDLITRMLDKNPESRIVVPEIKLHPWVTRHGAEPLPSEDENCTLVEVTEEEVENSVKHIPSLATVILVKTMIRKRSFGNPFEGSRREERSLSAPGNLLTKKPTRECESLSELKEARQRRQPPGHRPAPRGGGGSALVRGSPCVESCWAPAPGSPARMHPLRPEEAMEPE

`CN1CCC(Nc2ncc3ncnc(Nc4ccc(F)c(Cl)c4)c3n2)CC1` [FALNIDAMOL] showed a ΔTm [1] of 0.3 °C, a ΔTm [2] of 0.5 °C and a ΔTm [3] of 1.1 °C. For the same compound, the ΔTm [4] was 1.4 °C, the ΔTm [5] was 0.9 °C and the ΔTm [6] was 0.1 °C. For the same compound, the ΔTm [7] was 0.5 °C, the ΔTm [8] was 1.5 °C and the ΔTm [9] was 0.5 °C. The ΔTm [10] was 0.5 °C, the ΔTm [11] was 4.2 °C and the ΔTm [12] was 0.7 °C. For the same compound, the ΔTm [13] was 0.4 °C, the ΔTm [14] was -0.2 °C and the ΔTm [15] was 0.3 °C. It also gave a ΔTm [16] of 2.5 °C, a ΔTm [17] of -0.4 °C and a ΔTm [18] of 0.4 °C. The ΔTm [19] was 0.1 °C, the ΔTm [20] was 1.7 °C and the ΔTm [21] was 1.7 °C. For the same compound, the ΔTm [22] was 7.7 °C and the ΔTm [23] was -0.1 °C.
Work on `CCN(CC)CCNC(=O)c1c(C)[nH]c(/C=C2\C(=O)Nc3ccc(F)cc32)c1C` yielded a ΔTm [1] of 0.3 °C, a ΔTm [2] of 5.5 °C and a ΔTm [24] of 0.4 °C. The ΔTm [3] was 1.5 °C, the ΔTm [4] was 3 °C and the ΔTm [5] was 2.2 °C. For the same compound, the ΔTm [25] was -0.1 °C, the ΔTm [7] was 7.1 °C and the ΔTm [8] was 3.4 °C. The ΔTm [9] was 2.3 °C, the ΔTm [11] was 5.9 °C and the ΔTm [13] was 9.2 °C. The ΔTm [26] was 0.7 °C, the ΔTm [15] was 3.9 °C and the ΔTm [16] was 1.7 °C. It also gave a ΔTm [17] of 6 °C, a ΔTm [27] of 8.6 °C and a ΔTm [19] of 7.4 °C. The ΔTm [20] was 0.9 °C, the ΔTm [21] was 12.1 °C and the ΔTm [28] was 11.3 °C. The ΔTm [29] was 6.5 °C and the ΔTm [23] was 6.8 °C.
With `COc1ccc(COc2ccc(Cc3cnc(N)nc3N)cc2OC)cc1` the ΔTm [1] was 0.3 °C, the ΔTm [2] was 0.3 °C and the ΔTm [24] was -0.1 °C. For the same compound, the ΔTm [3] was -1 °C, the ΔTm [4] was 0.3 °C and the ΔTm [5] was 0 °C. The ΔTm [25] was 0 °C, the ΔTm [7] was 0 °C and the ΔTm [8] was -0.2 °C. The ΔTm [9] was -0.2 °C, the ΔTm [10] was -0.2 °C and the ΔTm [11] was -0.2 °C. The ΔTm [12] was 0.1 °C, the ΔTm [13] was -0.2 °C and the ΔTm [14] was -0.2 °C. It also gave a ΔTm [26] of 0.1 °C, a ΔTm [15] of 0.1 °C and a ΔTm [16] of -0.2 °C. It also gave a ΔTm [17] of 0.2 °C, a ΔTm [18] of 0.7 °C and a ΔTm [27] of -0.2 °C. It also gave a ΔTm [19] of 0.1 °C, a ΔTm [20] of 0.3 °C and a ΔTm [21] of 0.4 °C. The ΔTm [28] was -0.5 °C, the ΔTm [22] was 0.1 °C and the ΔTm [29] was 0.1 °C. The ΔTm [23] was -0.1 °C.
`Cc1ccc(NC(=O)c2ccc(CN3CCN(C)CC3)cc2)cc1Nc1nccc(-c2cccnc2)n1` was tested, and the ΔTm [1] was 2.8 °C, the ΔTm [2] was 0.1 °C and the ΔTm [24] was 0.8 °C. It also gave a ΔTm [3] of 1.6 °C, a ΔTm [4] of 0.7 °C and a ΔTm [5] of 0.3 °C. It also gave a ΔTm [25] of -0.3 °C, a ΔTm [7] of 0.2 °C and a ΔTm [8] of 0.4 °C. It also gave a ΔTm [9] of 0.3 °C, a ΔTm [10] of 0.1 °C and a ΔTm [12] of 0.4 °C. It also gave a ΔTm [13] of 0.8 °C, a ΔTm [14] of 0.8 °C and a ΔTm [26] of 0 °C. The ΔTm [15] was 0.4 °C, the ΔTm [16] was -0.6 °C and the ΔTm [17] was 1.2 °C. It also gave a ΔTm [18] of 0.5 °C, a ΔTm [27] of -0.4 °C and a ΔTm [19] of 2.6 °C. For the same compound, the ΔTm [20] was 0.6 °C, the ΔTm [28] was 0.8 °C and the ΔTm [22] was -0.4 °C. The ΔTm [29] was 1.7 °C and the ΔTm [23] was 2.8 °C.
With `Clc1ccc(Nc2nnc(Cc3ccncc3)c3ccccc23)cc1` the ΔTm [1] was 0 °C, the ΔTm [2] was 1.3 °C and the ΔTm [3] was 0 °C. For the same compound, the ΔTm [4] was 0.8 °C, the ΔTm [5] was 0.5 °C and the ΔTm [6] was -0.5 °C. The ΔTm [7] was -0.4 °C, the ΔTm [8] was 0.1 °C and the ΔTm [9] was -0.4 °C. It also gave a ΔTm [10] of 0.5 °C, a ΔTm [11] of -0.6 °C and a ΔTm [12] of 0.6 °C. For the same compound, the ΔTm [13] was 0.2 °C, the ΔTm [14] was 0 °C and the ΔTm [15] was 0.4 °C. For the same compound, the ΔTm [16] was -0.7 °C, the ΔTm [17] was -0.8 °C and the ΔTm [18] was -0.2 °C. It also gave a ΔTm [19] of -0.1 °C, a ΔTm [20] of 0 °C and a ΔTm [21] of 0.3 °C. The ΔTm [22] was 0.2 °C and the ΔTm [23] was 0.5 °C.
`Cc1nc(Nc2ncc(C(=O)Nc3c(C)cccc3Cl)s2)cc(N2CCN(CCO)CC2)n1` showed a ΔTm [1] of 0 °C, a ΔTm [2] of 3.8 °C and a ΔTm [3] of 2.4 °C. It also gave a ΔTm [4] of 0.4 °C, a ΔTm [5] of -0.2 °C and a ΔTm [6] of 0.2 °C. It also gave a ΔTm [7] of -0.2 °C, a ΔTm [8] of 0.2 °C and a ΔTm [9] of 0 °C. The ΔTm [10] was 0.5 °C, the ΔTm [11] was 0.1 °C and the ΔTm [12] was 0.9 °C. It also gave a ΔTm [13] of 0.4 °C, a ΔTm [14] of 0.2 °C and a ΔTm [15] of 0.5 °C. For the same compound, the ΔTm [16] was -0.6 °C, the ΔTm [17] was 2.3 °C and the ΔTm [18] was 0.3 °C. It also gave a ΔTm [19] of 0.2 °C, a ΔTm [20] of 0 °C and a ΔTm [21] of 1.9 °C. The ΔTm [22] was -0.4 °C and the ΔTm [23] was 0.6 °C.
